Experiments:
[1] = Acute toxicity in the mouse by the I.P. route; assay type: in vivo; settings: for LD50: read-out: DL-50 (lethal dose involving the death of half of the animals)
From the text: The acute toxicity was studied in the mouse by the I.P. route. It is expressed in the form of DL-50 (lethal dose involving the death of half of the animals) or DL-0 (maximum non-lethal dose).

[2] = Anti-ulcer activity: ulcer caused by aspirin; assay type: in vivo, rat (male Wistar); settings: aspirin 192 mg/kg per os, standardised to control batch and cimetidine (index 1)
Experimental: The experiment is carried out on male Wistar rats of 180 to 200 g. The products to be tested are administered at 100 mg/kg I.P. (unless indicated to the contrary in Table IV).
At t=0, the rats are made to fast and a first administration of the product to be tested is made.
At t=18 hours, 2 ml of an ulcer-forming suspension with 192 mg of aspirin/kg are administered per os then a second administration of the product to be tested is made.
At t=22 hours, the animals are sacrificed and the ulcers are marked as follows: small point-like ulcers: mark 1 more extensive ulcers: mark 3 highly extensive or very deep ulcers: mark 9
This marking is standardised with respect to a control batch and to cimetidine (a reference product) to which index 1 has been allocated.

[3] = Anti-hypoxic activity: survival to hypoxia (nitrogen-oxygen 95:5); assay type: in vivo, mouse (Swiss male); settings: I.P., 1/10th of LD-50 or 100 mg/kg when LD-0 ≥ 800 mg/kg; up to 15 minutes; mouse
Experimental: The experiment is carried out on batches of 20 Swiss male mice weighing from 20 to 30 g. Each product to be tested is administered to the mice by intraperitoneal route at a dose corresponding to 1/10th of the LD-50 or at a dose of 100 mg/kg when the LD-0 is higher than or equal to 800 mg/kg. The mice are placed in a nitrogen-oxygen (95:5) v/v atmosphere. The survival time of the mice is then measured up to 15 minutes maximum.
The results shown in Table VII are expressed in percentage of survival with respect to a non-treated control batch and a batch treated with an anti-hypoxic reference product [specialty known under the trade name of "Duxil" and which is constituted by a mixture of Almitrine bis-methanesulfonate and of Raubasine in the weight ratio 3:1], the anti-hypoxic reference product being administered at the dose of 18 mg/kg I.P.

SMILES	Ulcer index ([2]; 100 mg/kg I.P.)	DL-0 (maximum non-lethal dose) ([1]; I.P.) [mg/kg IP]	Survival (survival percentage to hypoxic aggression) [3]	other results
O=C(c1ccc(C(F)(F)F)cc1)c1cccc(O[C@@H]2OC[C@@H](O)[C@H](O)[C@H]2O)c1 [Example 53, [3-(4-trifluoromethylbenzoyl)-phenyl]-β-D-xylopyranoside]	0.64	–	–	LD50 ([1]; in vivo, ip, I.P.): 550 mg/kg
CC(=O)O[C@@H]1[C@@H](OC(C)=O)[C@H](Oc2ccc(C(=O)c3ccccc3[N+](=O)[O-])cc2)OC[C@H]1OC(C)=O [Example 78]	–	> 800	–	–
Cc1cc(C(=O)c2ccc(Cl)cc2)cc(C)c1O[C@@H]1OC[C@@H](O)[C@H](O)[C@H]1O [Example 22]	1.46	–	–	LD50 ([1]; in vivo, ip, I.P.): 500 mg/kg
Cc1ccccc1C(=O)c1cccc(O[C@@H]2OC[C@@H](O)[C@H](O)[C@H]2O)c1 [Example 52]	–	> 800	–	–
CC(=O)O[C@@H]1[C@@H](OC(C)=O)[C@H](Oc2ccc(C(=O)c3cccc([N+](=O)[O-])c3)cc2)OC[C@H]1OC(C)=O [Example 80]	1.00	> 800	–	–
O=C(c1ccccc1)c1ccc(O[C@@H]2O[C@H](CO)[C@@H](O)[C@H](O)[C@H]2O)cc1 [Example 126]	–	–	+ (from 30 to 49%)	DL-0 (maximum non-lethal dose) ([1]; in vivo, ip): > 800 mg/kg IP
O=C(c1ccc(O[C@@H]2O[C@H](CO)[C@H](O)[C@H](O)[C@H]2O)cc1)c1ccc([N+](=O)[O-])cc1 [Example 20]	0.62	> 800	–	–
Cc1cc(C(=O)c2ccc(Cl)cc2)ccc1O[C@@H]1OC[C@@H](O)[C@H](O)[C@H]1O [Example 28]	–	–	++ (from 50 to 79%)	DL-0 (maximum non-lethal dose) ([1]; in vivo, ip): > 800 mg/kg IP
CC(=O)N[C@H]1[C@H](Oc2ccc(C(=O)c3ccc(C)cc3)cc2)O[C@H](CO)[C@@H](O)[C@@H]1O [Example 111]	0.42	–	++ (from 50 to 79%)	LD50 ([1]; in vivo, ip, I.P.): 750 mg/kg
CC(=O)N[C@H]1[C@H](Oc2ccc(C(=O)c3ccccc3C)cc2C)O[C@H](CO)[C@@H](O)[C@@H]1O [Example 122]	0.91	–	+ (from 30 to 49%)	DL-0 (maximum non-lethal dose) ([1]; in vivo, ip): > 800 mg/kg IP
O=C(c1ccc(O[C@@H]2OC[C@@H](O)[C@H](O)[C@H]2O)cc1)c1ccc(Cl)cc1Cl [Example 31]	1.04	> 800	–	–
CC(=O)N[C@H]1[C@H](Oc2ccc(C(O)c3ccc(C)cc3)cc2)O[C@H](CO)[C@@H](O)[C@@H]1O (stereo partly shown) [Example 128]	–	–	++ (from 50 to 79%)	DL-0 (maximum non-lethal dose) ([1]; in vivo, ip): > 800 mg/kg IP
OC(c1ccc(O[C@@H]2OC[C@@H](O)[C@H](O)[C@H]2O)cc1)c1cccc(C(F)(F)F)c1 (stereo partly shown) [Example 93]	–	> 800	–	–
CC(=O)O[C@@H]1[C@@H](OC(C)=O)[C@H](Oc2ccc(C(=O)c3ccccc3C)cc2C)OC[C@H]1OC(C)=O [Example 103]	0.65	–	++ (from 50 to 79%)	DL-0 (maximum non-lethal dose) ([1]; in vivo, ip): > 800 mg/kg IP
O=C(c1ccc(O[C@@H]2OC[C@@H](O)[C@H](O)[C@H]2O)cc1)c1ccc(C(F)(F)F)cc1 [Example 11]	–	–	++ (from 50 to 79%)	DL-0 (maximum non-lethal dose) ([1]; in vivo, ip): > 800 mg/kg IP; Ulcer index ([2]; 200 mg/kg P.O.): 0
OC(c1ccccc1)c1cccc(O[C@@H]2OC[C@@H](O)[C@H](O)[C@H]2O)c1 (stereo partly shown) [Example 117]	0.59	–	++ (from 50 to 79%)	LD50 ([1]; in vivo, ip, I.P.): 1000 mg/kg
O=C(c1ccc(O[C@@H]2O[C@H](CO)[C@@H](O)[C@H](O)[C@H]2O)cc1)c1ccc([N+](=O)[O-])cc1 [Example 19]	0.74	–	++ (from 50 to 79%)	DL-0 (maximum non-lethal dose) ([1]; in vivo, ip): > 800 mg/kg IP
O=[N+]([O-])c1ccc(C(O)c2ccc(O[C@@H]3O[C@H](CO)[C@@H](O)[C@H](O)[C@H]3O)cc2)cc1 (stereo partly shown) [Example 129]	–	> 800	–	–
Cc1ccc(C(O)c2ccc(O[C@@H]3OC[C@@H](O)[C@H](O)[C@H]3O)cc2)cc1 (stereo partly shown) [Example 90]	0.57	> 800	–	–
OC(c1ccc(Br)cc1)c1ccc(O[C@@H]2OC[C@@H](O)[C@H](O)[C@H]2O)cc1 (stereo partly shown) [Example 95]	0.52	> 800	–	–

SMILES	Ulcer index ([2]; 100 mg/kg I.P.)	DL-0 (maximum non-lethal dose) ([1]; I.P.) [mg/kg IP]	Survival (survival percentage to hypoxic aggression) [3]	other results
Cc1ccc(C(=O)c2ccc(O[C@@H]3O[C@H](CO)[C@@H](O)[C@H](O)[C@H]3O)cc2)cc1 [Example 127]	–	–	++ (from 50 to 79%)	LD50 ([1]; in vivo, ip, I.P.): 700 mg/kg
CC(=O)O[C@@H]1[C@@H](OC(C)=O)[C@H](Oc2ccc(C(=O)c3ccc(Cl)cc3Cl)cc2)OC[C@H]1OC(C)=O [Example 74]	0.91	> 800	–	–
CC(=O)O[C@@H]1[C@@H](OC(C)=O)[C@H](Oc2ccc(C(=O)c3ccc(N=C=S)cc3)cc2)OC[C@H]1OC(C)=O [Example 42]	–	> 800	–	–
Cc1cc(C)c(C(=O)c2ccc(O[C@@H]3OC[C@@H](O)[C@H](O)[C@H]3O)cc2)c(C)c1 [Example 32]	0.54	> 800	–	–
COC(=S)Nc1ccc(C(=O)c2ccc(O[C@@H]3OC[C@@H](O)[C@H](O)[C@H]3O)cc2)cc1 [Example 65]	–	> 800	–	–
COc1cc(C(=O)c2ccc(O[C@@H]3OC[C@@H](OC(C)=O)[C@H](OC(C)=O)[C@H]3OC(C)=O)cc2)cc(OC)c1O [Example 84]	–	> 800	–	–
O=C(c1ccc(Cl)cc1)c1cccc(O[C@@H]2OC[C@@H](O)[C@H](O)[C@H]2O)c1 [Example 48]	0.75	–	–	LD50 ([1]; in vivo, ip, I.P.): 220 mg/kg
Cc1ccc(C(=O)c2cccc(O[C@@H]3OC[C@@H](O)[C@H](O)[C@H]3O)c2)cc1 [Example 49]	1.21	> 800	–	–
CC(=O)N[C@H]1[C@H](Oc2c(C)cc(C(=O)c3c(C)cccc3C)cc2C)O[C@H](CO)[C@@H](O)[C@@H]1O [Example 37]	1.02	–	–	LD50 ([1]; in vivo, ip, I.P.): 600 mg/kg
CC(=O)N[C@H]1[C@H](Oc2c(C)cc(C(=O)c3ccccc3C)cc2C)O[C@H](COS(=O)(=O)O)[C@@H](OS(=O)(=O)O)[C@@H]1OS(=O)(=O)O [Example 68]	–	> 800	–	–
O=C(c1ccc(Cl)cc1)c1ccc(O[C@@H]2O[C@H](CO)[C@@H](O)[C@H](O)[C@H]2O)cc1 [Example 124]	–	–	+ (from 30 to 49%)	DL-0 (maximum non-lethal dose) ([1]; in vivo, ip): > 800 mg/kg IP
COc1cc(C(=O)c2ccc(O[C@@H]3OC[C@@H](O)[C@H](O)[C@H]3O)cc2)cc(OC)c1OC [Example 33]	0.46	> 800	–	–
CC(=O)O[C@@H]1[C@@H](OC(C)=O)[C@H](Oc2ccc(C(=O)c3c(C)cc(C)cc3C)cc2)OC[C@H]1OC(C)=O [Example 73]	0.52	> 800	–	–
Cc1ccc(C(O)c2cccc(O[C@@H]3OC[C@@H](O)[C@H](O)[C@H]3O)c2)cc1 (single isomer, unassigned) [Example 107]	–	–	–	DL-50 (lethal dose involving the death of half of the animals) ([1]; I.P.): 550 mg/kg IP
CC(=O)N[C@H]1[C@H](Oc2ccc(C(=O)c3ccccc3Cl)cc2)O[C@H](CO)[C@@H](O)[C@@H]1O [Example 120]	–	–	+++ (higher than or equal to 80%)	DL-0 (maximum non-lethal dose) ([1]; in vivo, ip): > 800 mg/kg IP
CC(=O)O[C@@H]1[C@@H](OC(C)=O)[C@H](Oc2cccc(C(=O)c3ccc(Cl)cc3)c2)OC[C@H]1OC(C)=O [Example 82]	–	> 800	–	–
Cc1cc(O)ccc1C(=O)c1cc(C)c(O[C@@H]2O[C@H](CO)[C@@H](O)[C@H](O)[C@H]2O)c(C)c1 [Example 27]	0.42	> 800	–	–
CC(=O)O[C@@H]1[C@@H](OC(C)=O)[C@H](Oc2cccc(C(=O)c3ccccc3)c2)OC[C@H]1OC(C)=O [Example 83]	–	–	++ (from 50 to 79%)	DL-0 (maximum non-lethal dose) ([1]; in vivo, ip): > 800 mg/kg IP
Cc1cc(C(=O)c2ccccc2)cc([N+](=O)[O-])c1O[C@@H]1OC[C@@H](O)[C@H](O)[C@H]1O [Example 25]	0.54	–	–	LD50 ([1]; in vivo, ip, I.P.): 330 mg/kg
O=C(c1ccc(O[C@@H]2OC[C@@H](OS(=O)(=O)O)[C@H](OS(=O)(=O)O)[C@H]2OS(=O)(=O)O)cc1)c1cccc([N+](=O)[O-])c1 [Example 72]	0.47	–	–	LD50 ([1]; in vivo, ip, I.P.): 650 mg/kg
